Assays:
[1] = test system: CD (SD) rats; experiment: Acute toxicity of single oral administration in rats; format: in vivo; conditions: for Number of deaths/Total number, Female: female rats; for Number of deaths/Total number, Male: male rats
Experimental: Male and Female CD (SD) rats, 6 weeks old, purchased from Japan SLC CO., Ltd.) were respectively and randomly classified into three groups (each consisting of five rats) to be used for this experiment.
Commercially available α-lactalbumin (manufactured by Sigma Co., Ltd.) was dissolved in water for injection (manufactured by Otsuka Pharmaceutical Co., Ltd.) to each of a concentration of 100 mg/ml and 200 mg/ml, which were respectively and orally administered in an amount of 1 ml per 100 g of body weight (at each dose of 1000 mg and 2000 mg per 1 kg of rat body weight) to each rat of each group by single oral instillation by means of a metal probe with a rounded tip, in order to examine the acute toxicity. As a blank test, only water for injection (manufactured by Otsuka Pharmaceutical Co., Ltd.) was administered in the same way to each rat of both groups of males and females.

[2] = test system: stress-induced ulcers; experiment: Test Method 2: stress-induced ulcers in rats (restraint and water immersion, Takagi and Okabe); format: in vivo, Wistar rats; conditions: test group 3; sum of scores of ten rats; oral 10 mg/kg, 1 mg/ml; 7 hours restraint in water at 23° C.; blank 50
Experimental: (§1) Male Wistar rats weighing 230 to 270 g, 11 weeks old, (purchased from Japan SLC CO., Ltd.) were randomly classified into six groups (each consisting of ten rats).
(§2) As test agents (antiulcer agents including α-lactalbumin of the present invention as an active ingredient), commercially available α-lactalbumin (manufactured by Sigma Co., Ltd.) was dissolved in distilled water to a concentration of 1 mg/ml to be used. As a test agent for a blank test, distilled water was used.
This experiment was carried out in a manner identical to Method 1 described above, except that ulcers were induced according to the method described by Takagi and Okabe (Japanese Journal of Pharmacology, volume 18, pages 9 to 18, 1968). That is, rats fasted for 24 hours were orally administered with each test agent including at a dose of 10 mg/kg of an active ingredient in body weight (test group number 3). The test agent for a blank test was orally administered to rats in an amount of 10 ml/kg body weight (test group number 4). After 30 minutes, each rat was held in a stainless steel restrictive cage, and was left in a water tank at 23° C., standing and submerging to the depth of the bottom of the breast xiphoid process of the rat.
After 7 hours, each rat was pulled up from the water tank, and the degree of ulcers was measured in a manner identical to Method 1 described above.

[3] = test system: alcohol-induced ulcers; experiment: Test Method 1: alcohol-induced ulcers in rats, stomach examined after 7 hours; format: in vivo, Wistar rats; conditions: test group 1; sum of scores of ten rats; oral 10 mg/kg, 1 mg/ml; 7 hours after HCl/ethanol; blank 50
Experimental: as §1, §2
This experiment was carried out according to the method disclosed by Robert et al. (Gastroenterology, volume 77, pages 433 to 443, 1979) in a manner similar to Example 1. That is, rats fasted for 24 hours were orally administered with each test agent at a dose of 10 mg/kg of an active ingredient in body weight (test group number 1). The test agent for a blank test was orally administered to rats in an amount of 10 ml/kg in body weight (test group number 2). […]
After 7 hours, the rats were killed by ether inhalation, the stomach of each rat was taken out to the body surface, the pyloric part of the stomach was ligated, and then the stomach was removed. […] Then, the curvatura ventriculi major of the stomach fixed by formalin was cut to open, and the degree of ulcers was measured in a manner identical to Example 1.

[4] = test system: ulcers caused by indomethacin; experiment: Test Method 3: ulcers caused by a nonsteroidal anti-inflammatory drug (indomethacin) in rats; format: in vivo, Wistar rats; conditions: test group 5; sum of scores of ten rats; oral 10 mg/kg, 1 mg/ml; 7 hours after indomethacin 30 mg/kg oral; blank 50
Experimental: as §1, §2
This experiment was carried out in a manner identical to Method 1 described above, except that ulcers were induced in accordance with the method of Okabe, et al. (Japanese Journal of Pharmacology, volume 29, pages 670 to 673, […]). That is, rats fasted for 24 hours were orally administered with the each test agent at a dose of 10 mg/kg of an active ingredient in body weight (test group number 5). The test agent for a blank test was orally administered to each rat in an amount of 10 ml/kg body weight (test group number 6). After 30 minutes, indomethacin at a dose of 30 mg/kg body weight, which is a representative nonsteroidal anti-inflammatory drug, was orally administered.
After 7 hours, the degree of ulcers was measured in a manner identical to Method 1 described above.

[5] = test system: hydrochloric acid and ethanol induced lesions on the mucous membrane of the stomach; experiment: Hydrochloric acid and ethanol induced ulcer in rats (method of Robert et al.), stomach examined after 1 hour; format: in vivo, Wistar rats; conditions: for Cumulative degree of lesions on mucous membrane: blank 60
Experimental: Male Wistar rats weighing 230 to 270 g, 11 weeks old, (purchased from Japan SLC CO., Ltd.) were randomly classified into five groups (each consisting of ten rats).
The experiment was carried out according to the method disclosed by Robert et al. (Gastroenterology, volume 77, pages 433 to 443, 1979). That is, rats were fasted for 24 hours and were orally administered with each test agent at a dose of 10 mg/kg of an active ingredient in body weight. Test agent 1 for a blank test was orally administered to the rats in an amount of 10 ml/kg body weight. After 30 minutes, hydrochloric acid and ethanol solution [hydrochloric acid and ethanol solution (M=mol/dm^3) prepared by mixing 500 mM of hydrogen chloride (HCl) solution and 75% ethanol solution at a volume ratio of […])] was orally administered to the rats at a dose of 5 ml/kg body weight.
After 1 hour, the rats were killed by ether inhalation, the stomach of each rat was taken out to the body surface, the pyloric part of the stomach was ligated, and then the stomach was removed. Then, 10 ml of 2% formalin solution was injected into the stomach from the cardiac part thereof, and the stomach was subsequently immersed in the formalin solution for 10 minutes for fixation. Then, the curvatura ventriculi major of the stomach fixed by formalin was cut to open, and the degree of ulcers was measured by the following method.
That is, the total area of injured portions on the mucous membrane of each rat was measured, and then the degree of lesions on the mucous membrane of each rat (score) was classified into six grades as shown in Table 1 in accordance with the total area of the injured portion.
This experiment was carried out in a manner identical to Example 1, except that α-lactalbumin included in the test agents as an active ingredient was respectively orally administered at a dose of 0 mg/kg body weight (blank test), 1 mg/kg body weight, 10 mg/kg body weight, or 100 mg/kg body weight.
This experiment was carried out in a manner identical to Example 1, except that α-lactalbumin included as an active ingredient in each test agent was respectively orally administered at a dose of 10 mg/kg body weight. The dose for the blank test was 0 mg/kg body weight.

α-lactalbumin
Number of deaths/Total number, Female ([1]; single oral dose 1000 mg/kg): 0/5
Number of deaths/Total number, Female ([1]; single oral dose 2000 mg/kg): 0/5
Number of deaths/Total number, Male ([1]; single oral dose 1000 mg/kg): 0/5
Number of deaths/Total number, Male ([1]; single oral dose 2000 mg/kg): 0/5
LD50 ([1]; rats, single oral administration): no less than 2000 mg/kg body weight
Cumulative degree of lesions on mucous membrane [2]: 12
Cumulative degree of lesions on mucous membrane [3]: 6
Cumulative degree of lesions on mucous membrane [4]: 23
Concentration of test agent that shows antiulcer effects ([5]; oral dose fixed at 10 mg/kg): no less than 0.5 mg/ml
Concentration of test agent that shows significant antiulcer effects ([5]; oral dose fixed at 10 mg/kg): no less than 1 mg/ml
Effective dose for oral administration ([5]; rats, oral, significant antiulcer effects): no less than 10 mg per 1 kg of body weight
Cumulative degree of lesions on mucous membrane ([5]; sum of scores (0-6, Table 1) of ten rats, oral 10 mg/kg active ingredient, 1 mg/ml, 30 min before HCl/ethanol): 7
Cumulative degree of lesions on mucous membrane ([5]; sum of scores of ten rats, concentration 0.25 mg/ml, oral dose 10 mg/kg): 30
Cumulative degree of lesions on mucous membrane ([5]; sum of scores of ten rats, concentration 0.5 mg/ml, oral dose 10 mg/kg): 13
Cumulative degree of lesions on mucous membrane ([5]; sum of scores of ten rats, concentration 1 mg/ml, oral dose 10 mg/kg): 7
Cumulative degree of lesions on mucous membrane ([5]; sum of scores of ten rats, concentration 5 mg/ml, oral dose 10 mg/kg): 5
Cumulative degree of lesions on mucous membrane ([5]; sum of scores of ten rats, concentration 10 mg/ml, oral dose 10 mg/kg): 5
Cumulative degree of lesions on mucous membrane ([5]; sum of scores of ten rats, oral dose 1 mg/kg, 1 mg/ml): 47
Cumulative degree of lesions on mucous membrane ([5]; sum of scores of ten rats, oral dose 10 mg/kg, 1 mg/ml): 7
Cumulative degree of lesions on mucous membrane ([5]; sum of scores of ten rats, oral dose 100 mg/kg, 1 mg/ml): 3
